From patent publication US20230346831A1, “METHODS FOR TREATING […] USING LOW DOSE CARBON MONOXIDE” (priority 2020, published 2023)

Key:
HRG1 = assay: quantitative real-time reverse transcription PCR; format: cell-based, human; conditions: MCF7/TGL and MDA-MB-231/TGL cells; 250 ppm CO
Procedure: (§1) mRNA was isolated from cells (MCF7/TGL and MDA-MB-231/TGL) grown on 6-cm dishes using RNeasy mini kit (Qiagen, Hilden, Germany) containing gDNA Eliminator spin columns. cDNA was generated using the SuperScript III First-strand synthesis system with random hexamers (Invitrogen, Carlsbad, CA), and power SYBR green (Invitrogen, Carlsbad, CA)-based quantitative real-time PCR was performed using primer specific for HRG1 (human, forward: 5′- […] -3′ (SEQ ID NO: 1), reverse: 5′- […] -3′ (SEQ ID NO: 2)) or HCP1 (human forward: 5′- […] -3′ (SEQ ID NO: 3), reverse: 5′-[…] -3′ (SEQ ID NO: 4)), CYP1B1 (human, forward: 5′TGAGTGCCGTGTGTTTCGG -3′ (SEQ ID NO: 5), reverse: 5′-[…] -3′ (SEQ ID NO: 6)), SP1 (human, forward: 5′-GTGGCCGCTACCTTCACTG -3′ (SEQ ID NO: 7), reverse: 5′-GCCCCACTCCTACTTGGTC -3′ (SEQ ID NO: 8)) with the comparative CT method (ΔΔCT; ABI).
(§2) To investigate how CO reduces heme levels, whether CO decreased the transportation of heme into the cytosol was examined. […] Furthermore, heme oxygenases (HO-1, HO-2, and HO-3) cleave heme into 3 products: CO, ferrous ions (Fe2+), and biliverdin. […] Likewise, changes in protein levels of Bach 1 (a physiological repressor of HO-1 and a pro-metastatic transcription factor, whose degradation is reported to be mediated by heme in Nrf2-mutated lung cancer) was not detected (FIG. 4E). […]

HCP1 = assay: quantitative real-time reverse transcription PCR; format: cell-based, human; conditions: MCF7/TGL and MDA-MB-231/TGL cells; 250 ppm CO
Procedure: as §1, §2

N134/RHAMM^B cells = assay: tail vein liver metastasis model; format: in vivo; conditions: 1.5 × 10^6 N134/RHAMM^B cells tail vein, NSG mice, 250 ppm CO 3 hours daily, 24 days
Procedure: NSG mice were injected with 0.1 million (FIGS. 3A-3B) or 5 × 10^4 (FIGS. 3C-3E) MDA-MB-231/TGL breast cancer cells through tail vein or 8988T/TGL pancreatic cancer cells through spleen (FIGS. 3F-3H). Mice were randomly divided into two groups after injection. One group of mice was kept in regular mouse holding room all the time while the other group was treated with 250 ppm CO for 3 hours daily starting one day after injection. FIGS. 3C and 3F: bioluminescent imaging was taken at day 0, day 1, day3 and then once a week and signals from the whole mice were plotted. FIGS. 3A, 3D and 3G: organs were harvested for histological analysis. Representative H&E stained images of metastatic tumors in the lung sections (FIGS. 3A and 3D) and in the liver sections (FIG. 3G) were shown. Metastatic tumor areas or numbers of mets on the H&E stained sections for each mouse were quantified (FIGS. 3B, 3E and 3H).
In another experiment, immunodeficient NOD/scid-IlL2Rgc knockout mice were injected with 1.5 × 10^6 N134/RHAMM^B cells in 120 µl PBS via tail veins. Tumors developed 24 days after injection with 1.5 × 10^6 N134/RHAMM^B cells, and livers were assessed.

MDA-MB-231/TGL cells = assay: experimental tail vein lung metastasis assay, human breast cancer xenograft; format: in vivo, NSG mice
Procedure: NSG mice were generated by the Jackson Laboratory. All mice were housed in accordance with the institutional guidelines. All procedures involving mice were approved by the institutional animal care and use committee of Weill Cornell Medicine. 1 × 10^5 or 5 × 10^4 MDA-MB-231/TGL cells in 150 µl PBS were injected into the tail veins of female NSG mice at the age of 7-8 weeks (n=5/group for 1× 10^5 cells and n = 6/group for 5 × 10^4 cells). 1× 10^4 8988T/TGL cells in 100 µl PBS were injected into spleen of NSG mice at age of 7-8 weeks (n=4/group, male and female) to observe the liver metastasis (G. Zhang, & Y. N. Du, Methods Mol Biol 1882, 309-320 (2019)). The spleen was removed after the injection. Starting one day after injection, mice were randomized into two groups. One group was kept in a regular mouse holding room (control), and the other group was put into a chamber delivering 250 ppm CO 3 hours daily. Mice were subjected to bioluminescent imaging using the In Vivo Imaging System Spectrum (PerkinElmer, Waltham, MA) at 0, 1, 3 days and then weekly after tumor cells were injected until the final time points, as described previously by Y. C. Du, D. S. Klimstra, & H. Varmus, PLoS One 4, e6932 (2009)). Luciferase signals were transformed to nature log scale before analysis. GEE method was used to test the overall difference of tumor growth over time. All analyses were performed in statistical software SAS Version 9.4 (SAS Institute, Cary, NC).
Mouse tissues were removed and fixed in 10% buffered formalin overnight at room temperature. Formalin-fixed/paraffin-embedded sections (5-µm) were deparaffinized and rehydrated by passage through a graded xylene/ethanol series before staining. Immunochemistry was performed using the VECTASTAIN Elite ABC kit following the manufacturer’s instructions. Tumor number and tumor size were quantified by scanning the whole tissue slide of each mouse under microscope. The size of tumor area of each tumor was measured by the cellSens imaging software (Olympus, Tokyo, Japan). Total tumor area of each mouse or total tumor number of each mouse was plotted. The primary antibodies used were cleaved caspase 3 (1:333; Cell Signaling Tech (Cat. No. 9661), Danvers, MA) and Ki67 (1:1000, Vector Labs (Cat. No. VP-K451), Burlingame, CA).
To determine whether 250 ppm CO inhibits cancer metastasis in vivo, an experimental tail vein metastasis assay with TNBC MDA-MB-231 cell line was performed. 0.1 million MDA-MB-231/TGL (luciferase reporter) cells were injected into the tail vein of the NOD/scid-lL2Rgc knockout (NSG) immunodeficient mice. Mice were randomly divided in to two groups after injection. […]

## [C-]#[O+] [CO, Carbon monoxide]
HRG1
  HRG1 mRNA expression: reduced
HCP1
  HCP1 mRNA expression: reduced
N134/RHAMM^B cells
  total metastatic pancreatic tumor burden in the liver: showed a trend to reduce
N134/RHAMM^B cells; vs untreated controls
  liver metastases: reduced
MDA-MB-231/TGL cells; 0.1 million MDA-MB-231/TGL cells tail vein, NSG mice, 250 ppm CO gas 3 hours daily, 23-day time point, vs control
  metastatic tumor burden in lung sections (histological analysis): significantly lower
MDA-MB-231/TGL cells; 0.1 million MDA-MB-231/TGL cells tail vein, 250 ppm CO 3 hours daily, control group lethargic after 23 days
  appearance / signs of sickness of the mice: looked healthy and had no signs of sickness
MDA-MB-231/TGL cells; 5 × 10^4 MDA-MB-231/TGL cells tail vein, 250 ppm CO 3 hours daily, 7 days/week, 25 days after the injection
  metastatic tumor burden in lung sections (histological analysis): significantly lower
MDA-MB-231/TGL cells; 5 × 10^4 MDA-MB-231/TGL cells tail vein, 250 ppm CO 3 hours daily, 7 days/week, imaging to 3 weeks, P = 0.0016, GEE method
  bioluminescent signals (whole mice) over time: significantly lower
